Reference: patent publication US9511058B2, “Methods for using carboxamide, sulfonamide and amine compounds” (Rigel Pharmaceuticals, Inc., priority 2010, dated 2016)
Values belong to the compound of their own block, whether it stands above or below them.

Biological target: AMPK
Assay: AMPK activation, enzyme-linked immunosorbent assay
Type: biochemical
Settings: compounds of Table 1 (Table 6)
Procedure: Compounds of Table 1 were assayed for their ability to activate AMPK using an enzyme-linked immunosorbent assay.
Compounds of Table 2 were assayed for their ability to activate AMPK using an enzyme-linked immunosorbent assay.
Compounds of Table 3 were assayed for their ability to activate AMPK using an enzyme-linked immunosorbent assay.
Compounds of Table 4 were assayed for their ability to activate AMPK using an enzyme-linked immunosorbent assay.
Compounds of Table 5 were assayed for their ability to activate AMPK using an enzyme-linked immunosorbent assay.

EC50: 1 to 5 µM
SMILES: O=C(NC1CCN(Cc2ccccc2)CC1)c1ccc(OC2CCN(c3ccc(C(F)(F)F)cc3)CC2)cn1 [1-38, N-(1-benzylpiperidin-4-yl)-5-(1-(4-(trifluoromethyl)phenyl)piperidin-4-yloxy)picolinamide]

EC50: 0.1 to 0.5 µM
SMILES: N#Cc1ccc(CN2CC(NC(=O)c3ccc(OC4CCN(c5ccc(C(F)(F)F)cc5)CC4)cn3)C2)cc1 [1-41, N-(1-(4-cyanobenzyl)azetidin-3-yl)-5-(1-(4 (trifluoromethyl)phenyl)piperidin-4-yloxy)picolinamide]

EC50: 1 to 5 µM
SMILES: O=C(NC1CN(Cc2ccncc2)C1)c1ccc(OC2CCN(c3ccc(C(F)(F)F)cc3)CC2)cn1 [1-42, N-(1-(pyridin-4-ylmethyl)azetidin-3-yl)-5-(1-(4-(trifluoromethyl)phenyl)piperidin-4-yloxy)picolinamide]

EC50: 1 to 5 µM
SMILES: O=C(NC1CCN(Cc2ccncc2)CC1)c1cccc(OC2CCN(c3ccc(C(F)(F)F)cc3)CC2)n1 [1-43, N-(1-(pyridin-4-ylmethyl)piperidin-4-yl)-6-(1-(4-(trifluoromethyl)phenyl)piperidin-4-yloxy)picolinamide]

The remaining lines, values behind:

SMILES: O=C(NC1CCN(Cc2ccc3ccccc3c2)CC1)c1ccc(OC2CCN(c3ccc(C(F)(F)F)cc3)CC2)cn1 [1-37, N-(1-(naphthalen-2-ylmethyl)piperidin-4-yl)-5-(1-(4-(trifluoromethyl)phenyl)piperidin-4-yloxy)picolinamide]
EC50: 0.5 to 1 µM

SMILES: CN(C)c1ccc(CN2CCC(NC(=O)c3ccc(OC4CCN(c5ccc(C(F)(F)F)cc5)CC4)cn3)CC2)cc1 [1-39, N-(1-(4-(dimethylamino)benzyl)piperidin-4-yl)-5-(1-(4-(trifluoromethyl)phenyl)piperidin-4-yloxy)picolinamide]
EC50: 0.1 to 0.5 µM

SMILES: O=C(NC1CCN(Cc2ccc(N3CCOCC3)cc2)CC1)c1ccc(OC2CCN(c3ccc(C(F)(F)F)cc3)CC2)cn1 [1-40, N-(1-(4-morpholinobenzyl)piperidin-4-yl)-5-(1-(4-(trifluoromethyl)phenyl)piperidin-4-yloxy)picolinamide]
EC50: < 0.1 µM

SMILES: O=C(NC1CCN(Cc2cncnc2)CC1)c1ccc(OC2CCN(c3ccc(C(F)(F)F)cc3)CC2)cn1 [1-44, N-(1-(pyrimidin-5-ylmethyl)piperidin-4-yl)-5-(1-(4-(trifluoromethyl)phenyl)piperidin-4-yloxy)picolinamide]
EC50: 0.1 to 0.5 µM

SMILES: COC(=O)c1ccc(CN2CCC(NC(=O)c3ccc(OC4CCN(c5ccc(C(F)(F)F)cc5)CC4)nc3)CC2)cc1 [1-45, methyl 4-((4-(6-(1-(4-(trifluoromethyl)phenyl)piperidin-4-yloxy)nicotinamido)piperidin-1-yl)methyl)benzoate]
EC50: > 10 µM

SMILES: O=C(O)c1ccc(CN2CCC(NC(=O)c3ccc(OC4CCN(c5ccc(C(F)(F)F)cc5)CC4)nc3)CC2)cc1 [1-46, 4-((4-(6-(1-(4-(trifluoromethyl)phenyl)piperidin-4-yloxy)nicotinamido)piperidin-1-yl)methyl)benzoic acid]
EC50: 1 to 5 µM

SMILES: O=C(NC1CCN(Cc2cn(C(c3ccccc3)(c3ccccc3)c3ccccc3)cn2)CC1)c1ccc(OC2CCN(c3ccc(C(F)(F)F)cc3)CC2)cn1 [1-47, 5-(1-(4-(trifluoromethyl)phenyl)piperidin-4-yloxy)-N-(1-((1-trityl-1H-imidazol-4-yl)methyl)piperidin-4-yl)picolinamide]
EC50: 1 to 5 µM

SMILES: O=C(NC1CCN(Cc2c[nH]cn2)CC1)c1ccc(OC2CCN(c3ccc(C(F)(F)F)cc3)CC2)cn1 [1-48, N-(1-((1H-imidazol-4-yl)methyl)piperidin-4-yl)-5-(1-(4-(trifluoromethyl)phenyl)piperidin-4-yloxy)picolinamide]
EC50: 1 to 5 µM

SMILES: CC(C)(C)OC(=O)NCCCNC(=O)c1ccc(OC2CCN(c3ccc(C(F)(F)F)cc3)CC2)cn1 [1-49, tert-butyl 3-(5-(1-(4-(trifluoromethyl)phenyl)piperidin-4-yloxy)picolinamido) propylcarbamate]
EC50: < 0.1 µM
